Experimental data taken from ChEMBL document CHEMBL1128660, “Synthesis and fungicidal activity of 2,2-bipyridine derivatives” (1995).

Experiments:
Format in all cases: functional
Botrytis cinerea [1] = assay: Fungicidal activity (under greenhouse conditions against Cucumber botrytis (Botrytis cinerea) at 200 ppm
Pyricularia grisea [2] = assay: Fungicidal activity under greenhouse conditions against Rice blast (Pyricularia oryzae) at 200 ppm
Puccinia recondita [3] = assay: Fungicidal activity under greenhouse conditions against Wheat leaf rust (Puccinia recondita) at 200 ppm
Thanatephorus cucumeris = assay: Fungicidal activity under greenhouse conditions against Rice sheath blight (Rhizoctonia solani) at 200 ppm
Oculimacula yallundae [4] = assay: Fungicidal activity under greenhouse conditions against Wheat foot rot (Pseudocercosporella herpotrichoides) at 200 ppm.
Parastagonospora nodorum [5] = assay: The fungicidal activity (percent disease control) under greenhouse conditions against Wheat septoria (Septoria nodorum) at 200 ppm
Phytophthora infestans = assay: Fungicidal activity under greenhouse conditions against Tomato late blight (Phtyopthora infestans) at 200 ppm
Blumeria graminis [6] = assay: Fungicidal activity under greenhouse conditions against Wheat powdery mildew (Erisyphe graminis) at 200 ppm at 200 ppm
Plasmopara viticola [7] = assay: The fungicidal activity (percent disease control) under greenhouse conditions against Grape downy mildew (Plasmopara viticola) at 200 ppm
Parastagonospora nodorum [8] = assay: The fungicidal activity (percent disease control) under greenhouse conditions against Wheat septoria (Septoria nodorum) at 40 ppm
Blumeria graminis [9] = assay: The fungicidal activity (percent disease control) under greenhouse conditions against Wheat powdery mildew (Erisyphe graminis) at 200 ppm at 200 ppm; shows curative effect
Parastagonospora nodorum [10] = assay: The fungicidal activity (percent disease control) under greenhouse conditions against Wheat septoria (Septoria nodorum) at 40 ppm; shows curative effect
Blumeria graminis [11] = assay: The fungicidal activity (percent disease control) under greenhouse conditions against Wheat powdery mildew (Erisyphe graminis) at 40 ppm […]
Botrytis cinerea [12] = assay: The fungicidal activity (percent disease control) under greenhouse conditions against Cucumber botrytis (Botrytis cinerea) at 40 ppm
Pyricularia grisea [13] = assay: The fungicidal activity (percent disease control) under greenhouse conditions against Rice blast (Pyricularia oryzae) at 200 ppm; shows curative effect
Puccinia recondita [14] = assay: The fungicidal activity (percent disease control) under greenhouse conditions against Wheat leaf rust (Puccinia recondita) at 40 ppm; shows curative effect
Plasmopara viticola [15] = assay: The fungicidal activity (percent disease control) under greenhouse conditions against Grape downy mildew (Plasmopara viticola) at 40 ppm
Puccinia recondita [16] = assay: The fungicidal activity (percent disease control) under greenhouse conditions against Wheat leaf rust (Puccinia recondita) at 40 ppm
Blumeria graminis [17] = assay: The fungicidal activity (percent disease control) under greenhouse conditions against Wheat powdery mildew (Erisyphe graminis) at 40 ppm; shows curative effect
Puccinia recondita [18] = assay: The fungicidal activity (percent disease control) under greenhouse conditions against Wheat leaf rust (Puccinia recondita) at 200 ppm; shows curative effect
Parastagonospora nodorum [19] = assay: The fungicidal activity (percent disease control) under greenhouse conditions against Wheat septoria (Septoria nodorum) at 200 ppm; shows curative effect
Oculimacula yallundae [20] = assay: The fungicidal activity (percent disease control) under greenhouse conditions against Wheat foot rot (Pseudocercosporella herpotrichoides) at 40 ppm

Row | Structure (SMILES) | Disease control (Botrytis cinerea [1]) [%] | Disease control (Pyricularia grisea [2]) [%] | Disease control (Puccinia recondita [3]) [%] | Disease control (Thanatephorus cucumeris) [%] | Disease control (Oculimacula yallundae [4]) [%] | Disease control (Parastagonospora nodorum [5]) [%] | Disease control (Phytophthora infestans) [%] | Disease control (Blumeria graminis [6]) [%] | Disease control (Blumeria graminis [9]) [%] | Disease control (Parastagonospora nodorum [10]) [%] | further results
1 | c1ccc(OCc2ccc(-c3ccccn3)nc2)cc1 | 0 | 0 | 0 | 0 | 0 | 0 | 0 | 11 | – | – | –
2 | CCCCCc1ccnc(-c2cc(CCCCC)ccn2)c1 | 0 | 27 | 90 | 93 | 0 | – | 0 | 92 | – | – | –
3 | CC(C)c1ccnc(-c2cc(C(C)C)ccn2)c1 | 0 | 67 | – | 73 | 12 | – | 0 | 38 | – | – | –
4 | CCCCc1ccnc(-c2cc(CCCC)ccn2)c1 | 0 | 85 | 33 | 93 | 44 | – | 0 | 21 | – | – | –
5 | Cc1ccc(-c2ccccn2)nc1 | 0 | 0 | 0 | 0 | 0 | 0 | 0 | 24 | – | – | Disease control (Plasmopara viticola [7]): 0%
6 | COc1ccccc1-c1ccnc(-c2ccccn2)c1 | 0 | 32 | 85 | 0 | 0 | – | 24 | – | 93 | – | Disease control (Parastagonospora nodorum [8]): 27%
7 | CCCCCCCCCCCCc1ccnc(-c2cc(CCCCCCCCCCCC)ccn2)c1 | 0 | 0 | – | 0 | 0 | – | 0 | 0 | – | – | –
8 | O=[N+]([O-])c1ccccc1-c1ccnc(-c2ccccn2)c1 | 41 | 32 | 67 | 0 | 0 | – | 24 | 0 | – | 76 | –
9 | Cc1ccnc(-c2ccc(-c3ccccc3)cn2)c1 | – | 32 | 93 | 0 | 69 | – | 0 | – | – | 96 | Disease control (Blumeria graminis [11]): 47%; Disease control (Botrytis cinerea [12]): 28%
10 | c1ccc(-c2ccc(-c3ccccn3)nc2)cc1 | 45 | – | – | 0 | 0 | 100 | 23 | – | 100 | – | Disease control (Pyricularia grisea [13]): 87%; Disease control (Plasmopara viticola [7]): 96%; Disease control (Puccinia recondita [14]): 60%
11 | COc1ccc(-c2ccc(-c3ccccn3)nc2)cc1 | 0 | 97 | 93 | 19 | 75 | 40 | 0 | 92 | – | – | Disease control (Plasmopara viticola [15]): 65%
12 | Brc1ccc(-c2ccc(-c3ccccn3)nc2)cc1 | 0 | 0 | 20 | 0 | 0 | – | 0 | – | 19 | 58 | –
13 | Clc1ccc(-c2ccc(-c3ccccn3)nc2)cc1 | 0 | 97 | 65 | 100 | 81 | 98 | 0 | – | 99 | – | Disease control (Plasmopara viticola [15]): 50%
14 | COc1ccccc1-c1ccnc(-c2cc(C)ccn2)c1 | 0 | 53 | – | 81 | 86 | – | 0 | – | – | 12 | Disease control (Puccinia recondita [16]): 19%; Disease control (Blumeria graminis [17]): 30%
15 | Cc1ccc(-c2ccc(-c3ccccn3)nc2)cc1 | 59 | 32 | – | 0 | 0 | – | 0 | – | 99 | – | Disease control (Puccinia recondita [18]): 84%; Disease control (Parastagonospora nodorum [19]): 95%
16 | Cc1ccnc(-c2cc(-c3ccccc3)ccn2)c1 | 30 | 53 | 99 | 81 | 66 | – | 0 | 99 | – | 19 | –
17 | Fc1ccc(-c2ccc(-c3ccccn3)nc2)cc1 | 0 | 32 | 64 | 100 | – | – | 24 | – | 55 | 32 | Disease control (Oculimacula yallundae [20]): 27%
18 | O=[N+]([O-])c1ccc(-c2ccc(-c3ccccn3)nc2)cc1 | 0 | 0 | 0 | 0 | 0 | 0 | 0 | 0 | – | – | Disease control (Plasmopara viticola [7]): 60%
19 | c1ccc(-c2ccnc(-c3ccccn3)c2)cc1 | 0 | 74 | – | 0 | 0 | – | 0 | – | 95 | 94 | Disease control (Plasmopara viticola [7]): 96%; Disease control (Puccinia recondita [14]): 11%
